Test results from patent US20190225650A1, “PEPTIDOMIMETIC MACROCYCLES AND USE THEREOF IN REGULATING HIF1ALPHA” (AILERON THERAPEUTICS, INC., priority 2013, published 2019).
Bridge positions count the residues as written; N and C are the ends. Square brackets hold non-standard residues; d marks the D form. Peptide text beside a SMILES is read from it. R8 = C=CCCCCCC[C@@](C)(N)C(=O)O; S5 = C=CCCC[C@](C)(N)C(=O)O; Nle = CCCC[C@H](N)C(=O)O

How the values were obtained:
[1] = molecular target: T1, flag-tagged HIF1α (AA 786-826) / His6-tagged p300 (AA 323-423) complex (Homo sapiens, UniProt Q09472); assay: HIF1α p300 displacement assay (TR FRET, +CHAPS); assay type: binding; settings: read-out: IC50 (nM) (HIF1α_p300 Displacement + CHAPS)
T1 construct: His6-tagged p300 (AA 323-423); made in house; host or cells: E. coli (pETDuet vector)
Summary of the method: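 In this TR-FRET displacement format, peptides compete HIF1α C-terminal transactivation domain off p300-CH. They were preincubated 1 h at room temperature with 300 nM complex in HEPES pH 7.4/NaCl buffer with 7.5 mM CHAPS and 1 mM DTT. Anti-His-D2 (4 nM) and anti-Flag-K (0.5 μM) followed for 2 h, and a one-site fit of the fluorescence ratio gave IC50.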

HRE-bla ME-180 cells [2] = assay: Reporter gene assay (HRE-bla ME-180 HIF reporter, GeneBLAzer); assay type: cell-based, human; settings: for EC50: 24 hour normoxia
Summary of the method: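 A FRET β-lactamase readout of HIF transcription was used. After compound treatment in 0.3% DMSO/media under normoxic conditions, 20 μl of 6× LiveBLAzer-FRET B/G (CCF4-AM) substrate was added. Plates sat 3 hr at room temperature in the dark and were read at 409 Ex/460Em and 409Ex/530Em on a Synergy 2. Inhibition was compared against DMSO vehicle controls, with chetomin as positive control.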

HRE-bla ME-180 cells [3] = assay: Cell proliferation assay (viability, MTT, 1% FBS); assay type: cell-based, human
Summary of the method: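 Viable cell number was measured with the CellTiter 96 (MTT) kit after compounds were applied for a 16 h normoxic (21% O2) pretreatment, followed by further normoxic or hypoxic (1% O2) culture. Cells: 2×10^4 ME-180 per well, Opti-MEM + 1% FBS, 0.5% DMSO vehicle.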

## CCCC[C@H](NC(=O)[C@H](CC(C)C)NC(=O)[C@@H](NC(=O)[C@H](CCC(=O)O)NC(=O)[C@H](CCC(=O)O)NC(=O)[C@H](C)NC(=O)[C@@H](NC(=O)[C@H](Cc1ccccc1)NC(C)=O)[C@@H](C)CC)C(C)C)C(=O)N[C@@]1(C)CCCC=CCCC[C@@](C)(C(=O)N[C@@H](CCCC)C(=O)N[C@@H](C)C(=O)N[C@@H](CC(C)C)C(=O)N[C@@H](CC(=O)O)C(=O)N[C@@H](C)C(=O)N[C@H](C(N)=O)[C@@H](C)CC)NC(=O)[C@H]([C@@H](C)CC)NC(=O)[C@H](C(C)C)NC(=O)[C@H](CC(C)C)NC1=O [SP-221] (Ac-FIAEEVL[Nle][S5]LVI[S5][Nle]ALDAI-NH2; staple 9-13)
[1]
  IC50: 200 to 400 nM
HRE-bla ME-180 cells [2]
  18 h Avg % max inhibition at top conc (HIF Rptr-24 hrs normoxia) (μM): ++++ (≥50: ++++)
  EC50: 15 to 30 µM
HRE-bla ME-180 cells [3]
  Viability 1% FBS AVG (MTT V3-24 hr Normoxia) (μM): ++++ (≥30: ++++)

## CCCC[C@@H]1NC(=O)[C@H](CC(C)C)NC(=O)[C@H](C(C)C)NC(=O)[C@@](C)(NC(=O)[C@H](CCC(=O)O)NC(=O)[C@H](CC(=O)O)NC(=O)[C@@H](NC(=O)[C@H](Cc2ccccc2)NC(C)=O)[C@@H](C)CC)CCCC=CCCC[C@@](C)(C(=O)N[C@@H](CC(C)C)C(=O)N[C@H](C(=O)N[C@H](C(=O)N[C@@H](CCC(=O)O)C(=O)N[C@@H](CCSC)C(=O)N[C@@H](C)C(=O)N[C@@H](CC(C)C)C(=O)N[C@@H](CC(=O)O)C(=O)N[C@@H](CCCNC(=N)N)C(=O)N[C@H](C(N)=O)[C@@H](C)CC)[C@@H](C)CC)C(C)C)NC1=O [SP-118] (Ac-FIDE[S5]VL[Nle][S5]LVIEMALDRI-NH2; staple 5-9)
[1]
  IC50: ≤ 200 nM
HRE-bla ME-180 cells [2]
  18 h Avg % max inhibition at top conc (HIF Rptr-24 hrs normoxia) (μM): +++ (≤25 but <50: +++)
  EC50: 15 to 30 µM
HRE-bla ME-180 cells [3]
  Viability 1% FBS AVG (MTT V3-24 hr Normoxia) (μM): ++++ (≥30: ++++)

## CCCC[C@H](NC(=O)[C@]1(C)CCCC=CCCC[C@](C)(NC(=O)[C@H](CCCC)NC(=O)[C@H](CC(C)C)NC(=O)[C@@H](NC(=O)[C@H](CCC(=O)O)NC(=O)[C@H](CCC(=O)O)NC(=O)[C@H](CC(=O)O)NC(=O)[C@@H](NC(=O)[C@H](CC(N)=O)NC(=O)[C@@H](NC(=O)[C@]2(C)CCCC=CCCCCCC[C@@](C)(NC(=O)[C@H](CCC(=O)O)NC(C)=O)C(=O)N[C@@H](CC(C)C)C(=O)N[C@@H](CC(C)C)C(=O)N[C@@H](CCCNC(=N)N)C(=O)N[C@@H](C)C(=O)N[C@@H](CC(C)C)C(=O)N[C@@H](CC(=O)O)C(=O)N2)C(C)C)[C@@H](C)CC)C(C)C)C(=O)N[C@@H](CC(C)C)C(=O)N[C@@H](C(C)C)C(=O)N[C@@H]([C@@H](C)CC)C(=O)N1)C(N)=O [SP-351] (Ac-E[R8]LLRALD[S5]VNIDEEVL[Nle][S5]LVI[S5][Nle]-NH2; staple 2-9, 19-23)
[1]
  IC50: 200 to 400 nM
HRE-bla ME-180 cells [2]
  18 h Avg % max inhibition at top conc (HIF Rptr-24 hrs normoxia) (μM): ++ (≤10 but <25: ++)
  EC50: > 30 µM
HRE-bla ME-180 cells [3]
  Viability 1% FBS AVG (MTT V3-24 hr Normoxia) (μM): ++++ (≥30: ++++)

## CC[C@H](C)[C@H](NC(=O)[C@H](CCCNC(=N)N)NC(=O)[C@H](CC(=O)O)NC(=O)[C@H](CC(C)C)NC(=O)[C@H](C)NC(=O)[C@H](CCSC)NC(=O)[C@H](CCC(=O)O)NC(=O)[C@@H](NC(=O)[C@@H](NC(=O)[C@H](CC(C)C)NC(=O)[C@]1(C)CCCC=CCCC[C@](C)(NC(=O)[C@H](CCC(=O)O)NC(=O)[C@H](CC(=O)O)NC(=O)[C@@H](NC(=O)[C@H](Cc2ccccc2)NC(C)=O)[C@@H](C)CC)C(=O)N[C@@H](C(C)C)C(=O)N[C@@H](CC(C)C)C(=O)N[C@@H](CCSC)C(=O)N1)C(C)C)[C@@H](C)CC)C(=O)N[C@@H](CCCCN)C(=O)N[C@@H](CCC(=O)O)C(N)=O [SP-113] (Ac-FIDE[S5]VLM[S5]LVIEMALDRIKE-NH2; staple 5-9)
[1]
  IC50: 400 to 700 nM
HRE-bla ME-180 cells [2]
  18 h Avg % max inhibition at top conc (HIF Rptr-24 hrs normoxia) (μM): ++++ (≥50: ++++)
  EC50: 5 to 15 µM
HRE-bla ME-180 cells [3]
  Viability 1% FBS AVG (MTT V3-24 hr Normoxia) (μM): ++++ (≥30: ++++)

## CC[C@H](C)[C@H](NC(=O)[C@H](Cc1ccccc1)NC(C)=O)C(=O)N[C@@H](CC(=O)O)C(=O)N[C@@H](CCC(=O)O)C(=O)N[C@@H](CC(N)=O)C(=O)N[C@H](C(=O)N[C@@H](CC(C)C)C(=O)N[C@@H](CCSC)C(=O)N[C@@]1(C)CCCC=CCCC[C@@](C)(C(=O)N[C@@H](CCSC)C(=O)N[C@@H](C)C(=O)N[C@@H](CC(C)C)C(N)=O)NC(=O)[C@H]([C@@H](C)CC)NC(=O)[C@H](C(C)C)NC(=O)[C@H](CC(C)C)NC1=O)C(C)C [SP-235] (Ac-FIDENVLM[S5]LVI[S5]MAL-NH2; staple 9-13)
[1]
  IC50: > 700 nM
HRE-bla ME-180 cells [2]
  18 h Avg % max inhibition at top conc (HIF Rptr-24 hrs normoxia) (μM): +++ (≤25 but <50: +++)
  EC50: 15 to 30 µM
HRE-bla ME-180 cells [3]
  Viability 1% FBS AVG (MTT V3-24 hr Normoxia) (μM): ++++ (≥30: ++++)

## CCCC[C@H](NC(=O)[C@H](CCC(=O)O)NC(=O)[C@]1(C)CCCC=CCCCCCC[C@@](C)(NC(=O)[C@H](CCC(=O)O)NC(=O)[C@H](CC(=O)O)NC(=O)[C@@H](NC(=O)[C@H](CC(N)=O)NC(=O)[C@@H](NC(=O)[C@]2(C)CCCC=CCCCCCC[C@@](C)(NC(=O)[C@H](CCC(=O)O)NC(=O)[C@H](C)NC(=O)[C@H](CCC(N)=O)NC(=O)[C@H](CC(C)C)NC(=O)[C@H](CC(C)C)NC(C)=O)C(=O)N[C@@H](CC(C)C)C(=O)N[C@@H](CC(C)C)C(=O)N[C@@H](CCCNC(=N)N)C(=O)N[C@@H](C)C(=O)N[C@@H](CC(C)C)C(=O)N[C@@H](CC(=O)O)C(=O)N2)C(C)C)[C@@H](C)CC)C(=O)N[C@@H](C(C)C)C(=O)N[C@@H](CC(C)C)C(=O)N[C@@H](CCCC)C(=O)N[C@@H](CO)C(=O)N[C@@H](CC(C)C)C(=O)N[C@@H](C(C)C)C(=O)N1)C(N)=O [SP-357] (Ac-LLQAE[R8]LLRALD[S5]VNIDE[R8]VL[Nle]SLV[S5]E[Nle]-NH2; staple 6-13, 19-26)
[1]
  IC50: ≤ 200 nM
HRE-bla ME-180 cells [2]
  18 h Avg % max inhibition at top conc (HIF Rptr-24 hrs normoxia) (μM): ++ (≤10 but <25: ++)
  EC50: > 30 µM
HRE-bla ME-180 cells [3]
  Viability 1% FBS AVG (MTT V3-24 hr Normoxia) (μM): ++++ (≥30: ++++)

## CCCC[C@H](NC(=O)[C@H](CCC(=O)O)NC(=O)[C@]1(C)CCCC=CCCCCCC[C@@](C)(NC(=O)[C@H](CCC(=O)O)NC(=O)[C@H](CC(=O)O)NC(=O)[C@@H](NC(=O)[C@H](CC(N)=O)NC(=O)[C@@H](NC(=O)[C@H](CCC(N)=O)NC(=O)[C@]2(C)CCCC=CCCC[C@](C)(NC(=O)[C@H](CC(C)C)NC(=O)[C@H](CCC(=O)O)NC(=O)[C@H](CCC(=O)O)NC(=O)CNC(=O)[C@H](CCC(N)=O)NC(=O)[C@H](CC(C)C)NC(=O)[C@H](CC(C)C)NC(C)=O)C(=O)N[C@@H](CCCNC(=N)N)C(=O)N[C@@H](C)C(=O)N[C@@H](CC(C)C)C(=O)N2)C(C)C)[C@@H](C)CC)C(=O)N[C@@H](C(C)C)C(=O)N[C@@H](CC(C)C)C(=O)N[C@@H](CCCC)C(=O)N[C@@H](CO)C(=O)N[C@@H](CC(C)C)C(=O)N[C@@H](C(C)C)C(=O)N1)C(=O)NCC(N)=O [SP-312] (Ac-LLQGEEL[S5]RAL[S5]QVNIDE[R8]VL[Nle]SLV[S5]E[Nle]G-NH2; staple 8-12, 19-26)
[1]
  IC50: > 700 nM
HRE-bla ME-180 cells [2]
  18 h Avg % max inhibition at top conc (HIF Rptr-24 hrs normoxia) (μM): ++++ (≥50: ++++)
  EC50: ≤ 5 µM
HRE-bla ME-180 cells [3]
  Viability 1% FBS AVG (MTT V3-24 hr Normoxia) (μM): ++++ (≥30: ++++)

## CCCC[C@H](NC(=O)[C@H](CCC(=O)O)NC(=O)[C@@H](NC(=O)[C@@H](NC(=O)[C@H](CC(C)C)NC(=O)[C@]1(C)CCCC=CCCC[C@](C)(NC(=O)[C@H](CCC(=O)O)NC(=O)[C@H](CC(=O)O)NC(=O)[C@@H](NC(=O)[C@H](Cc2ccccc2)NC(C)=O)[C@@H](C)CC)C(=O)N[C@@H]([C@@H](C)O)C(=O)N[C@@H](CC(C)C)C(=O)N[C@@H](CCCC)C(=O)N1)C(C)C)[C@@H](C)CC)C(=O)N[C@@H](C)C(=O)N[C@@H](CC(C)C)C(N)=O [SP-139] (Ac-FIDE[S5]TL[Nle][S5]LVIE[Nle]AL-NH2; staple 5-9)
[1]
  IC50: 400 to 700 nM
HRE-bla ME-180 cells [2]
  18 h Avg % max inhibition at top conc (HIF Rptr-24 hrs normoxia) (μM): +++ (≤25 but <50: +++)
  EC50: > 30 µM
HRE-bla ME-180 cells [3]
  Viability 1% FBS AVG (MTT V3-24 hr Normoxia) (μM): ++ (≤5 but <15: ++)

## CCCC[C@H](NC(=O)[C@H](Cc1ccccc1)NC(=O)[C@@H](NC(=O)[C@H](C)NC(=O)[C@H](CCC(N)=O)NC(=O)[C@H](CC(=O)O)NC(=O)[C@@H](NC(=O)[C@H](Cc1ccccc1)NC(C)=O)[C@@H](C)CC)C(C)C)C(=O)N[C@@]1(C)CCCC=CCCC[C@@](C)(C(=O)N[C@@H](Cc2c[nH]cn2)C(=O)N[C@@H](C)C(=O)N[C@@H](CC(C)C)C(=O)N[C@@H](CC(C)C)C(N)=O)NC(=O)[C@H]([C@@H](C)CC)NC(=O)[C@H](C(C)C)NC(=O)[C@H](CC(N)=O)NC1=O [SP-259] (Ac-FIDQAVF[Nle][S5]NVI[S5]HALL-NH2; staple 9-13)
[1]
  IC50: > 700 nM
HRE-bla ME-180 cells [2]
  18 h Avg % max inhibition at top conc (HIF Rptr-24 hrs normoxia) (μM): ++++ (≥50: ++++)
  EC50: ≤ 5 µM
HRE-bla ME-180 cells [3]
  Viability 1% FBS AVG (MTT V3-24 hr Normoxia) (μM): + (<5: +)
